According to US12329851B2 (MedinCell S.A., priority 2021, dated 2025):

Assay: Population pharmacokinetics (PopPK) modeling
Set-up: species or system human
Conditions: after sc Risperidone formulation
Description: The general procedures that were followed for PopPK model development are outlined below: • 1. Exploratory data analysis • 2. Base structural model development • 3. Evaluation of covariate effects • 4. Model refinement • 5. Model evaluation
This was a one compartment model, with a first order and transit compartment absorption routes and a first-order elimination.
Predicted risperidone concentration from the parent model was used as input into the metabolite central compartment.
Finally, model estimated parent and metabolite levels were used to calculate TAM exposure, which was used for PK evaluation and simulations as well as for exposure-response evaluation of safety and efficacy.

SMILES: Cc1nc2n(c(=O)c1CCN1CCC(c3noc4cc(F)ccc34)CC1)CCCC2O (stereo not shown) [9-OH-risperidone, 9-hydroxy-risperidone]
- final PopPK model estimate for clearance (CL): 5.78 L/h
